Where only a bound is given, the exact number is not on record here.

Assay [1] deals with T1, Neuronal acetylcholine receptor; alpha4/beta2 (Homo sapiens, UniProt P17787+P43681). The experiment in a line: Agonist activity at human alpha4beta2 nAChR expressed in human SH-EP1 cells assessed as induction of electrophysiological response at 10 uM by patch clamp method relative to acetylcholine. It is filed as cell-based. On the technique in general: In patch-clamp work, channel activity is measured electrically.
T1 sequence (P17787 whole entry): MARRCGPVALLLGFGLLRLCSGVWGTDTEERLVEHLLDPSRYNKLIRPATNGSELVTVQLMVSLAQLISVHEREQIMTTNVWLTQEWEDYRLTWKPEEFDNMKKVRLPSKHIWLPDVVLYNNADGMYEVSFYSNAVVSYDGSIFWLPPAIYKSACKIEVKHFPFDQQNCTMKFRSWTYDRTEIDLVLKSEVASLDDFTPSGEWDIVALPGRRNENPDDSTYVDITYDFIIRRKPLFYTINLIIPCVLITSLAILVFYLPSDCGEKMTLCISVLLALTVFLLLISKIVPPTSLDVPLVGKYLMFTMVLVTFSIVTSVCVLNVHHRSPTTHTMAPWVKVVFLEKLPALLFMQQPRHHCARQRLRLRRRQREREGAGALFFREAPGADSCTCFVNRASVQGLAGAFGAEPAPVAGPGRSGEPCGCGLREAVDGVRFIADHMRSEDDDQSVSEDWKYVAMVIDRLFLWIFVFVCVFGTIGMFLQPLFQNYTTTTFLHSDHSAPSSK
T1 sequence (P43681 whole entry): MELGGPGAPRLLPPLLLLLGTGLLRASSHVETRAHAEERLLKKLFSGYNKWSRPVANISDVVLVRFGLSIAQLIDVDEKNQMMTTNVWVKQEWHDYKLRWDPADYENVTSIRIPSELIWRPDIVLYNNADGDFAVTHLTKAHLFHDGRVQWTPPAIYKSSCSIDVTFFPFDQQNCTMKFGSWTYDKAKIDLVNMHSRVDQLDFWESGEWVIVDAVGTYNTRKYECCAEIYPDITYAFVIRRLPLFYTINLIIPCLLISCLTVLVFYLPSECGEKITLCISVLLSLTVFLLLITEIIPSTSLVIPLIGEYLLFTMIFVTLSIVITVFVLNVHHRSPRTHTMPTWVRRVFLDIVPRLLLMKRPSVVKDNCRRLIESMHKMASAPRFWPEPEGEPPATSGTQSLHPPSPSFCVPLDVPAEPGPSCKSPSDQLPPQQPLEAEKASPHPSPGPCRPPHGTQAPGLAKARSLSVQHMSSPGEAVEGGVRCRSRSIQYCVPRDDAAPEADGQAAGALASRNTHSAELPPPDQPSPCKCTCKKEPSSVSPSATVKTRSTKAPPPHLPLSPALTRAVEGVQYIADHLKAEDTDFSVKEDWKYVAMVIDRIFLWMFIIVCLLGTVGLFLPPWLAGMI

Assay [2] has as its target T1, Neuronal acetylcholine receptor; alpha4/beta2. The experiment in a line: Agonist activity at human alpha4beta2 nAChR expressed in human SH-EP1 cells assessed as induction of electrophysiological response at 0.1 uM by patch clamp method relative to acetylcholine. In kind it is cell-based.
The target is the same in assay [3]. Description: Displacement of [3H]nicotine from human alpha4beta2 nAChR expressed in human SH-EP1 cell membranes after 2 hrs by liquid scintillation counting analysis.
For assay [4] the target is unchanged. Description: Agonist activity at human alpha4beta2 nAChR expressed in human SH-EP1 cells assessed as induction of intracellular Ca2+ influx by FLIPR assay relative to nicotine. In kind it is cell-based.
The target is the same in assay [5]. Description: Agonist activity at human alpha4beta2 nAChR expressed in human SH-EP1 cells assessed as induction of electrophysiological response at 1 uM by patch clamp method relative to acetylcholine. It is filed as cell-based.
For assay [6] the target is unchanged. The experiment in a line: Agonist activity at human alpha4beta2 nAChR expressed in human SH-EP1 cells assessed as induction of intracellular Ca2+ influx by FLIPR assay. It is filed as cell-based.

Usually Ki stands for a dissociation constant, usually derived from enzyme kinetics or from competition with a known ligand. The Emax is the size of the effect at its maximum, as opposed to the concentration needed. `c1ccc(C(c2ccccc2)[N+]23CCN(CC2)CC3)cc1`: the Activity in assay [1] worked out at 1%; in assay [2] it was 1%; in assay [5], 3%. For the same compound, in assay [3], the Ki was over 10000 nM. For the same compound, in assay [4], the maximum response (Emax) was under 5%.
Take `c1ccc(C[N+]23CCC(CC2)C(=C(c2ccccc2)c2ccccc2)C3)cc1`: the Activity in assay [1] turned out to be 1%; in assay [2], 2%; in assay [5], 2%. For the same compound, affinity in assay [3] was put at a Ki of 7000 nM. For the same compound, the Emax in assay [4] was under 5%.
For the compound `N#C/C(=C1\CN2CCC1CC2)c1ccccc1`, the Activity in assay [1] turned out to be 2%; in assay [2], 3%; in assay [5], 2%. In assay [3], the Ki was determined as 1100 nM. The Emax in assay [4] is under 5%.
What is called EC50 is the concentration giving half of the maximal effect. `C(=C1/CN2CCC1CC2)/c1ccccc1`: the Activity stood at 2% in assay [1], 2% in assay [2] and 3% in assay [5]. Besides, the Ki in assay [3] is 1600 nM. Further, the maximal effect (Emax) in assay [4] was 11%. Further, the EC50 in assay [6] was over 10 µM.
Take `C(CN1CCCCC1)=C(c1ccccc1)c1ccccc1`: the Activity in assay [1] came to 1%; in assay [2], 0.8%; in assay [5], 2%. The compound also yielded a Ki in assay [3] of 160 nM. Further, the Emax in assay [4] amounted to 9%.
The corresponding values for `c1ccc(C(=C2CN3CCC2CC3)c2ccccc2)cc1` are 2%, 0.6%, 2%, 90 nM and 6%.
For `C(=C1/CN2CCC1CC2)/c1cccnc1`, the Activity in assay [1] turned out to be 24%; in assay [2], 4%; in assay [5] it was 11%. For the same compound, the affinity in assay [3] corresponds to a Ki of 6 nM. Moreover, the Emax in assay [4] was determined as 18%. Also, the EC50 in assay [6] is over 10 µM.

For the origin of these results see ChEMBL document CHEMBL2434918, “QM-polarized ligand docking accurately predicts the trend in binding affinity of a series of arylmethylene quinuclidine-like derivatives at the α4β2 and α3β4 nicotinic acetylcholine receptors (nAChRs)” (Bioorg Med Chem Lett, 2013).
